Source: ChEMBL document CHEMBL4400537, “Virtual Screening Identifies Irreversible FMS-like Tyrosine Kinase 3 Inhibitors with Activity toward Resistance-Conferring Mutations” (J Med Chem, 2019)
The source made the active and inactive calls. The rule behind the calls is not given here.

Experiments:
[1] = system: MV4-11; test: cells; conditions: Homo sapiens, MV4-11, 72 h
[2] = system: T1, Receptor-type tyrosine-protein kinase FLT3 (Homo sapiens), P36888 [D835Y]; test: Irreversible inhibition of recombinant human FLT3 D835Y mutant (571 to 993 residues) expressed in baculovirus expression system at 1 uM preincubated for 5 to 30 mins followed by myelobasic protein addition measured after 120 mins using BODIPY-tagged compounds in presence of ATP by ADP-Glo assay relative to control
T1 sequence (whole entry): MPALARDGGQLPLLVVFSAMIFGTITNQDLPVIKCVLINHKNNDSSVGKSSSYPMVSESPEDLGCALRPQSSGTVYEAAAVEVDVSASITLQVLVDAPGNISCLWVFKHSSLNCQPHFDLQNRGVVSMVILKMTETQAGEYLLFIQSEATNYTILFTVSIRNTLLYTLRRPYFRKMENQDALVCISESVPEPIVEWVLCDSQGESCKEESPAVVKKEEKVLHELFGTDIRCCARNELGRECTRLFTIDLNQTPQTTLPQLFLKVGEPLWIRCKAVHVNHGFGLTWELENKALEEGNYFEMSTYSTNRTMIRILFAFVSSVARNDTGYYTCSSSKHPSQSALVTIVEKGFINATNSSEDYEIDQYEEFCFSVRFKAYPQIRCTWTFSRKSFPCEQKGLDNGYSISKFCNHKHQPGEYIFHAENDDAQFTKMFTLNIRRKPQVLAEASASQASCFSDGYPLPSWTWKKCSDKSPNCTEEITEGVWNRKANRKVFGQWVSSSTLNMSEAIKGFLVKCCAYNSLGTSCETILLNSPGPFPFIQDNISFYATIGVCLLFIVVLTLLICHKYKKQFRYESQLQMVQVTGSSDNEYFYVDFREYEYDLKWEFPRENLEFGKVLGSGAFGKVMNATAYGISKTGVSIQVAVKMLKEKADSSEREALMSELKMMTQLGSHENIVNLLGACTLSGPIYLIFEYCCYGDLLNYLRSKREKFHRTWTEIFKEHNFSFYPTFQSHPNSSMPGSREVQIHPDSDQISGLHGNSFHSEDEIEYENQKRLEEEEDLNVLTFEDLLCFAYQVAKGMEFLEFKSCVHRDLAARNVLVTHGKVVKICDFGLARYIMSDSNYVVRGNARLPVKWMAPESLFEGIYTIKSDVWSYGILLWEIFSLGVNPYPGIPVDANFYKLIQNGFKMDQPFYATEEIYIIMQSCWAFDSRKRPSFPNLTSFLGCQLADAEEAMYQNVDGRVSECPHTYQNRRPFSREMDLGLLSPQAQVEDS

[3] = system: T1, Receptor-type tyrosine-protein kinase FLT3 (Homo sapiens), P36888 [D835Y]; test: Covalent binding affinity to recombinant human FLT3 D835Y mutant (571 to 993 residues) expressed in baculovirus expression system at 50 uM by Western blot analysis
[4] = system: T1, Receptor-type tyrosine-protein kinase FLT3 (Homo sapiens), P36888 [D835Y]; test: Covalent binding affinity to recombinant human FLT3 D835Y mutant (571 to 993 residues) expressed in baculovirus expression system at 100 uM by Western blot analysis
[5] = Drug uptake in zebrafish embryo gastrointestine at 10 uM starting 1 dpf and measured at 4 dpf by fluorescence microscopy; assay type: ADME, Danio rerio, Gastrointestinal tract; conditions: in vivo
[6] = Toxicity in zebrafish embryo assessed as mortality at 10 uM measured 120 hpf by fluorescence microscopy; design: species or system Danio rerio; conditions: in vivo
[7] = system: THP-1; test: cells; conditions: Homo sapiens, THP-1, 72 h
[8] = system: Jurkat; test: cells; conditions: Homo sapiens, 72 h
[9] = system: MOLM-14; test: cells; conditions: Homo sapiens, MOLM-14, 72 h
[10] = physchem; conditions: potassium phosphate buffer with reduced glutathione
[11] = system: T1, Receptor-type tyrosine-protein kinase FLT3 (Homo sapiens), P36888 [D835Y]; test: Inhibition of covalent binding of (Z)-N-(2-(2-(4-(2,8-Diethyl-5,5-difluoro-1,3,7,9-tetramethyl-5H-4lambda4,5lambda4-dipyrrolo[1,2-c:2',1'-f ][1,3,2]diazaborinin-10-yl)phenoxy)-acetamido)ethyl)-2,4-dimethyl-5-((2-oxo-5-(vinylsulfon-amido)-indolin-3-ylidene)methyl)-1H-pyrrole-3-carboxamide to recombinant human FLT3 D835Y mutant (571 to 993 residues) expressed in baculovirus expression system at […] by Western blot analysis
[12] = target: Glycogen synthase kinase-3 alpha (Homo sapiens) (UniProt P49840); test: Inhibition of human N-terminal His-tagged GSK3alpha expressed in baculovirus expression system at 1 uM relative to control
Sequence of Glycogen synthase kinase-3 alpha (Homo sapiens) (P49840 2-483 limits assumed): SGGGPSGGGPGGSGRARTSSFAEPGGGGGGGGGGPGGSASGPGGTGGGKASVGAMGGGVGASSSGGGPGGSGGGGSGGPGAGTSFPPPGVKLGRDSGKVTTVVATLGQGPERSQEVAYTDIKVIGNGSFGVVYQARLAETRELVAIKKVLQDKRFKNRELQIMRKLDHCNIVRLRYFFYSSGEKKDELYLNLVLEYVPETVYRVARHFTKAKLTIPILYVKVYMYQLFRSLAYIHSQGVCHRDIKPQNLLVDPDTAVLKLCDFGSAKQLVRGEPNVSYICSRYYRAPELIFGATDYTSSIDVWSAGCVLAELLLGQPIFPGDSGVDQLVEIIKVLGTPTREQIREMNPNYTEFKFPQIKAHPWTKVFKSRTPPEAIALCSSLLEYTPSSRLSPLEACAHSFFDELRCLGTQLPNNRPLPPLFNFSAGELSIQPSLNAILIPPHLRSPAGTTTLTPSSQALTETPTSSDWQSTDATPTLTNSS

[13] = target: Glycogen synthase kinase-3 beta (Homo sapiens) (UniProt P49841); test: Inhibition of human N-terminal His-tagged GSK3beta expressed in baculovirus expression system at 1 uM relative to control
Sequence of Glycogen synthase kinase-3 beta (Homo sapiens) (P49841 whole entry, looked up): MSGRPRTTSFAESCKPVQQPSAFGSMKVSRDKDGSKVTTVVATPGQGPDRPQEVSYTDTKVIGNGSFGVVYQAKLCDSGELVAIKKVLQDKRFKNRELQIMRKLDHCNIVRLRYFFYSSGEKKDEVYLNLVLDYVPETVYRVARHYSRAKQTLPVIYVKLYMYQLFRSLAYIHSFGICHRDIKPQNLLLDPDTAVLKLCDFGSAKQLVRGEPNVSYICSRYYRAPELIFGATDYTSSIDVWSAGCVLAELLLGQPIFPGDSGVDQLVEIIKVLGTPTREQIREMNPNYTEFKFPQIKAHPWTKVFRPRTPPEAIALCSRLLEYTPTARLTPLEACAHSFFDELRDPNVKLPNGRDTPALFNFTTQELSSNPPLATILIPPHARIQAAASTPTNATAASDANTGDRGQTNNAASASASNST

[14] = system: MV4-11; test: Cytotoxicity in human MV4-11 cells assessed as inhibition of cellular viability at 0.5 to 5000 nM incubated for 2 to 8 hrs followed by compound washout by CellTiter-Glo luminescent assay; assay type: functional, cell-based

C=CC(=O)Nc1ccc2c(c1)/C(=C/c1ccc[nH]1)C(=O)N2
IC50 [1]: > 1 nM

C=CC(=O)Nc1ccc(Nc2nccc(Nc3cc(C4CC4)[nH]n3)n2)cc1
IC50 [1]: 521 nM

CCC(=O)Nc1ccc(Nc2nccc(Nc3cc(C4CC4)[nH]n3)n2)cc1
IC50 [1]: > 1 nM

CC(=O)Nc1cccc(Nc2nccc(Nc3cc(C4CC4)[nH]n3)n2)c1
IC50 [1]: > 1 nM

C#CC(=O)Nc1ccc2c(c1)/C(=C/c1ccc[nH]1)C(=O)N2
IC50 [1]: 709 nM

CC(=O)Nc1ccc2c(c1)/C(=C/c1[nH]c(C)c(C(=O)NCCNC(=O)CCc3ccc4n3[B-](F)(F)[N+]3=C(C)C=C(C)C3=C4)c1C)C(=O)N2
inhibition [2]: 23% | Activity [3]: inactive | Activity [4]: inactive

CC(=O)Nc1ccc(Nc2nccc(Nc3cc(C4CC4)[nH]n3)n2)cc1
IC50 [1]: > 1 nM

C=CS(=O)(=O)Nc1ccc2c(c1)/C(=C/c1[nH]c(C)c(C(=O)NCCNC(=O)COc3ccc(C4=C5C(C)=C(CC)C(C)=[N+]5[B-](F)(F)n5c(C)c(CC)c(C)c54)cc3)c1C)C(=O)N2
inhibition [2]: 89% | Activity [3]: Active | Activity [4]: Active | Drug uptake [5]: Active

CCN(CC)CCNC(=O)c1c(C)[nH]c(/C=C2\C(=O)Nc3ccc(NC(C)=O)cc32)c1C
IC50 [1]: > 1000 nM

O=C(CCl)Nc1cccc(Nc2nccc(Nc3cc(C4CC4)[nH]n3)n2)c1
IC50 [1]: 175 nM

CCN(CC)CCNC(=O)c1c(C)[nH]c(/C=C2\C(=O)Nc3ccc(NC(=O)CCl)cc32)c1C
Activity [6]: Non-Toxic | IC50 [1]: 21 nM | IC50 [7]: > 1000 nM | IC50 [8]: > 1000 nM | IC50 [9]: 26.4 nM | half-life at 10 µM [10]: 218 min

CCS(=O)(=O)Nc1cccc(Nc2nccc(Nc3cc(C4CC4)[nH]n3)n2)c1
IC50 [1]: 489 nM

CCC1=C(C)C2=C(c3ccc(OCC(=O)NCCNC(=O)c4c(C)[nH]c(/C=C5\C(=O)Nc6ccc(NC(=O)C(F)(F)F)cc65)c4C)cc3)c3c(C)c(CC)c(C)n3[B-](F)(F)[N+]2=C1C
inhibition [2]: 34% | inhibition [3]: 7% | Activity [4]: 18%

O=C(O)Cc1c[nH]c2ccccc12
inhibition [11]: Active

O=C1Nc2ccccc2/C1=C/c1ccccc1
IC50 [1]: > 1 nM

CCS(=O)(=O)Nc1ccc2c(c1)/C(=C/c1ccc[nH]1)C(=O)N2
IC50 [1]: > 1 nM

O=C(CF)Nc1ccc2c(c1)/C(=C/c1ccc[nH]1)C(=O)N2
Activity [6]: Toxic | IC50 [1]: 845 nM | half-life at 10 µM [10]: > 1440 min

CCS(=O)(=O)Nc1ccc(Nc2nccc(Nc3cc(C4CC4)[nH]n3)n2)cc1
IC50 [1]: 129 nM

c1ccc(Nc2nccc(Nc3cc(C4CC4)[nH]n3)n2)cc1
Activity [6]: Toxic | inhibition [12]: 74% | inhibition [13]: 76% | IC50 [1]: 230 nM

O=C(CCl)Nc1ccc(Nc2nccc(Nc3cc(C4CC4)[nH]n3)n2)cc1
IC50 [1]: 141 nM

CC1=CC(C)=[N+]2C1=Cc1ccc(CCC(=O)NCCNC(=O)c3c(C)[nH]c(/C=C4\C(=O)Nc5ccc(NC(=O)CCl)cc54)c3C)n1[B-]2(F)F
inhibition [2]: 55% | Activity [3]: Active | Drug uptake [5]: Active

O=C1Nc2ccccc2/C1=C/c1ccc[nH]1
inhibition [12]: 12% | inhibition [13]: -6%

CC1(COc2ccc3c(c2)ncn3-c2ccc3cccc(N4CCC(N)CC4)c3n2)COC1 [CRENOLANIB]
Activity [6]: Toxic | Activity [14]: Active | IC50 [1]: 12 nM | IC50 [7]: > 1000 nM | IC50 [8]: > 1000 nM

C=CS(=O)(=O)Nc1ccc(Nc2nccc(Nc3cc(C4CC4)[nH]n3)n2)cc1
IC50 [1]: 58 nM | IC50 [7]: 514 nM | IC50 [8]: 298 nM

CCC(=O)Nc1ccc2c(c1)/C(=C/c1ccc[nH]1)C(=O)N2
IC50 [1]: > 1 nM

CC(=O)Nc1ccc2c(c1)/C(=C/c1ccc[nH]1)C(=O)N2
Activity [6]: Non-Toxic | IC50 [1]: > 1 nM

C=CS(=O)(=O)Nc1cccc(Nc2nccc(Nc3cc(C4CC4)[nH]n3)n2)c1
IC50 [1]: 2.3 nM | IC50 [7]: 172 nM | IC50 [8]: 44 nM

C#CC(=O)Nc1cccc(Nc2nccc(Nc3cc(C4CC4)[nH]n3)n2)c1
IC50 [1]: > 1 nM

c1ccc(-c2cnc3ccccn23)cc1
IC50 [1]: > 1 nM

CCC(=O)Nc1cccc(Nc2nccc(Nc3cc(C4CC4)[nH]n3)n2)c1
IC50 [1]: > 1 nM

C=CS(=O)(=O)Nc1ccc2c(c1)/C(=C/c1ccc[nH]1)C(=O)N2
IC50 [1]: 67 nM

COc1cc(O)c2c(c1)[C@H]1O[C@@H]1C[C@H](O)[C@H](O)C(=O)/C=C\C[C@H](C)OC2=O [HYPOTHEMYCIN]
Activity [6]: Toxic | IC50 [1]: 15 nM | IC50 [7]: > 1000 nM | IC50 [8]: > 1000 nM

O=C(CBr)Nc1ccc2c(c1)/C(=C/c1ccc[nH]1)C(=O)N2
Activity [6]: Toxic | IC50 [1]: 653 nM

C=CC(=O)Nc1cccc(Nc2nccc(Nc3cc(C4CC4)[nH]n3)n2)c1
IC50 [1]: 787 nM

CCN(CC)CCNC(=O)c1c(C)[nH]c(/C=C2\C(=O)Nc3ccc(NS(=O)(=O)CC)cc32)c1C
IC50 [1]: 643 nM

c1ccc(-c2cnc3[nH]cc(-c4ccccc4)c3c2)cc1
IC50 [1]: > 1 nM

O=C(CCl)Nc1ccc2c(c1)/C(=C/c1ccc[nH]1)C(=O)N2
IC50 [1]: 72 nM

C#CC(=O)Nc1ccc(Nc2nccc(Nc3cc(C4CC4)[nH]n3)n2)cc1
IC50 [1]: > 1 nM
